Assay results as given in ChEMBL document CHEMBL1130694, “Selective chemical modifications of polymyxin B” (Bioorg Med Chem Lett, 1998).
Converted amounts (≈) assume the structure as drawn. Positions of bridges follow the written chain, without caps; N, C: chain ends. Non-standard residues stand in square brackets, D forms with d. Residues, ends and D or L forms follow the SMILES beside them. *: point of attachment. Heptanoyl(6-Me) = CC(C)CCCCC(=O)*; Dab = NCC[C@H](N)C(=O)O

What was measured:
Escherichia coli = test: Compound was tested for antibacterial activity against Escherichia coli organism; format: functional
Mus musculus = species on record: Mus musculus; test: Compound was tested for protection against Pseudomonas infection in mice; format: functional; conditions: read-out: PD50
Pseudomonas = test: Compound was tested for antibacterial activity against Pseudomonas organism; format: functional
Staphylococcus = test: Compound was tested for antibacterial activity against Staphylococcus organism; format: functional
[1] = Compound was tested for acute toxicity in mice upon intravenous administration; format: organism-based; conditions: mouse, in vivo
[2] = Ratio of LD50 to PD50 was evaluated.; format: ADME, organism-based; conditions: mouse, in vivo

SMILES | MIC (Escherichia coli) | ED50 (Mus musculus) | MIC (Pseudomonas) | MIC (Staphylococcus) | LD50 [1] | selectivity ratio [2]
CC(C)CCCCC(=O)N[C@@H](CCNC(=O)CN)C(=O)N[C@H](C(=O)N[C@@H](CCN)C(=O)N[C@H]1CCNC(=O)[C@H]([C@@H](C)O)NC(=O)[C@H](CCN)NC(=O)[C@H](CCN)NC(=O)[C@H](CC(C)C)NC(=O)[C@@H](Cc2ccccc2)NC(=O)[C@H](CCN)NC1=O)[C@@H](C)O [listing 1 of 2 here] | 0.028 µg/mL (≈ 0.0225 µM) | 7 mg/kg | 0.033 µg/mL (≈ 0.0265 µM) | 8 µg/mL (≈ 6.42 µM) | – | –
CCCCCCC(N)C(=O)NCC[C@@H]1NC(=O)[C@H](CCN)NC(=O)[C@H](CC(C)C)NC(=O)[C@@H](Cc2ccccc2)NC(=O)[C@H](CCN)NC(=O)[C@@H](NC(=O)[C@H](CCN)NC(=O)[C@@H](NC(=O)[C@H](CCN)NC(=O)CCCCC(C)C)[C@@H](C)O)CCNC(=O)[C@H]([C@@H](C)O)NC1=O (stereo partly specified) | 0.225 µg/mL (≈ 0.169 µM) | 7 mg/kg | 0.051 µg/mL (≈ 0.0383 µM) | 0.561 µg/mL (≈ 0.422 µM) | 12 mg/kg | 1.7
CC(C)CCCCC(=O)N[C@@H](CCN)C(=O)N[C@H](C(=O)N[C@@H](CCN)C(=O)N[C@H]1CCNC(=O)[C@H]([C@@H](C)O)NC(=O)[C@H](CCNC(=O)CO)NC(=O)[C@H](CCN)NC(=O)[C@H](CC(C)C)NC(=O)[C@@H](Cc2ccccc2)NC(=O)[C@H](CCN)NC1=O)[C@@H](C)O | 1.54 µg/mL (≈ 1.23 µM) | – | 1.53 µg/mL (≈ 1.23 µM) | 22.6 µg/mL (≈ 18.1 µM) | – | –
CSCC[C@H](N)C(=O)NCC[C@@H]1NC(=O)[C@H](CCN)NC(=O)[C@H](CC(C)C)NC(=O)[C@@H](Cc2ccccc2)NC(=O)[C@H](CCN)NC(=O)[C@@H](NC(=O)[C@H](CCN)NC(=O)[C@@H](NC(=O)[C@H](CCN)NC(=O)CCCCC(C)C)[C@@H](C)O)CCNC(=O)[C@H]([C@@H](C)O)NC1=O | 0.77 µg/mL (≈ 0.583 µM) | – | 0.416 µg/mL (≈ 0.315 µM) | 5.65 µg/mL (≈ 4.28 µM) | – | –
CC(C)CCCCC(=O)N[C@@H](CCN)C(=O)N[C@H](C(=O)N[C@@H](CCN)C(=O)N[C@H]1CCNC(=O)[C@H]([C@@H](C)O)NC(=O)[C@H](CCNC(=O)[C@@H](N)CCCCN)NC(=O)[C@H](CCN)NC(=O)[C@H](CC(C)C)NC(=O)[C@@H](Cc2ccccc2)NC(=O)[C@H](CCN)NC1=O)[C@@H](C)O | 0.173 µg/mL (≈ 0.131 µM) | – | 0.032 µg/mL (≈ 0.0243 µM) | 2.8 µg/mL (≈ 2.13 µM) | – | –
CC(C)CCCCC(=O)N[C@@H](CCN)C(=O)N[C@H](C(=O)N[C@@H](CCN)C(=O)N[C@H]1CCNC(=O)[C@H]([C@@H](C)O)NC(=O)[C@H](CCNC(=O)[C@@H](N)CCC/N=C(/N)N[N+](=O)[O-])NC(=O)[C@H](CCN)NC(=O)[C@H](CC(C)C)NC(=O)[C@@H](Cc2ccccc2)NC(=O)[C@H](CCN)NC1=O)[C@@H](C)O | 1.3 µg/mL (≈ 0.935 µM) | – | 2.6 µg/mL (≈ 1.87 µM) | 1.2 µg/mL (≈ 0.863 µM) | – | –
CCNCC[C@H](NC(=O)CCCCC(C)C)C(=O)N[C@H](C(=O)N[C@@H](CCN)C(=O)N[C@H]1CCNC(=O)[C@H]([C@@H](C)O)NC(=O)[C@H](CCN)NC(=O)[C@H](CCN)NC(=O)[C@H](CC(C)C)NC(=O)[C@@H](Cc2ccccc2)NC(=O)[C@H](CCN)NC1=O)[C@@H](C)O | 0.112 µg/mL (≈ 0.092 µM) | – | 0.146 µg/mL (≈ 0.12 µM) | 2.3 µg/mL (≈ 1.89 µM) | – | –
CC(C)CCCCC(=O)N[C@@H](CCN)C(=O)N[C@H](C(=O)N[C@@H](CCN)C(=O)N[C@H]1CCNC(=O)[C@H]([C@@H](C)O)NC(=O)[C@H](CCN(C)C)NC(=O)[C@H](CCN)NC(=O)[C@H](CC(C)C)NC(=O)[C@@H](Cc2ccccc2)NC(=O)[C@H](CCN)NC1=O)[C@@H](C)O | 0.537 µg/mL (≈ 0.441 µM) | – | 0.456 µg/mL (≈ 0.375 µM) | 16 µg/mL (≈ 13.1 µM) | – | –
CC(C)CCCCC(=O)N[C@@H](CCN)C(=O)N[C@H](C(=O)N[C@@H](CCN)C(=O)N[C@H]1CCNC(=O)[C@H]([C@@H](C)O)NC(=O)[C@H](CCN(CC(=O)O)CC(=O)O)NC(=O)[C@H](CCN)NC(=O)[C@H](CC(C)C)NC(=O)[C@@H](Cc2ccccc2)NC(=O)[C@H](CCN)NC1=O)[C@@H](C)O | 1.19 µg/mL (≈ 0.911 µM) | – | 0.318 µg/mL (≈ 0.244 µM) | 22.6 µg/mL (≈ 17.3 µM) | – | –
CC(C)CCCCC(=O)N[C@@H](CCN)C(=O)N[C@H](C(=O)N[C@@H](CCN)C(=O)N[C@H]1CCNC(=O)[C@H]([C@@H](C)O)NC(=O)[C@H](CCNC(=O)[C@@H](N)CS)NC(=O)[C@H](CCN)NC(=O)[C@H](CC(C)C)NC(=O)[C@@H](Cc2ccccc2)NC(=O)[C@H](CCN)NC1=O)[C@@H](C)O | 1.68 µg/mL (≈ 1.3 µM) | – | 2.82 µg/mL (≈ 2.18 µM) | 11.3 µg/mL (≈ 8.75 µM) | – | –
CC(C)CCCCC(=O)N[C@@H](CCNC(=O)CN)C(=O)N[C@H](C(=O)N[C@@H](CCN)C(=O)N[C@H]1CCNC(=O)[C@H]([C@@H](C)O)NC(=O)[C@H](CCN)NC(=O)[C@H](CCN)NC(=O)[C@H](CC(C)C)NC(=O)[C@@H](Cc2ccccc2)NC(=O)[C@H](CCN)NC1=O)[C@@H](C)O [listing 2 of 2 here] | – | – | – | – | 20 mg/kg | 2.8
CC(=O)NCC[C@H](NC(=O)CCCCC(C)C)C(=O)N[C@H](C(=O)N[C@@H](CCN)C(=O)N[C@H]1CCNC(=O)[C@H]([C@@H](C)O)NC(=O)[C@H](CCN)NC(=O)[C@H](CCN)NC(=O)[C@H](CC(C)C)NC(=O)[C@@H](Cc2ccccc2)NC(=O)[C@H](CCN)NC1=O)[C@@H](C)O | 1.3 µg/mL (≈ 1.06 µM) | – | 2.8 µg/mL (≈ 2.27 µM) | 2.8 µg/mL (≈ 2.27 µM) | – | –
CC(C)CCCCC(=O)N[C@@H](CCN)C(=O)N[C@H](C(=O)N[C@@H](CCN)C(=O)N[C@H]1CCNC(=O)[C@H]([C@@H](C)O)NC(=O)[C@H](CCN)NC(=O)[C@H](CCN)NC(=O)[C@H](CC(C)C)NC(=O)[C@@H](Cc2ccccc2)NC(=O)[C@H](CCN)NC1=O)[C@@H](C)O ({Heptanoyl(6-Me)}-[Dab]T[Dab][Dab][Dab][dF]L[Dab][Dab]T; lactam 4-C) [listing 1 of 2 here] | 0.026 µg/mL (≈ 0.0219 µM) | 2 mg/kg | 0.051 µg/mL (≈ 0.0429 µM) | 2.8 µg/mL (≈ 2.35 µM) | – | –
CC(C)CCCCC(=O)N[C@@H](CCNC(=O)[C@@H](N)CCCN=C(N)N)C(=O)N[C@H](C(=O)N[C@@H](CCN)C(=O)N[C@H]1CCNC(=O)[C@H]([C@@H](C)O)NC(=O)[C@H](CCN)NC(=O)[C@H](CCN)NC(=O)[C@H](CC(C)C)NC(=O)[C@@H](Cc2ccccc2)NC(=O)[C@H](CCN)NC1=O)[C@@H](C)O | 0.453 µg/mL (≈ 0.337 µM) | – | 0.207 µg/mL (≈ 0.154 µM) | 4.48 µg/mL (≈ 3.33 µM) | – | –
CCN(CC)CC[C@@H]1NC(=O)[C@H](CCN)NC(=O)[C@H](CC(C)C)NC(=O)[C@@H](Cc2ccccc2)NC(=O)[C@H](CCN)NC(=O)[C@@H](NC(=O)[C@H](CCN)NC(=O)[C@@H](NC(=O)[C@H](CCN)NC(=O)CCCCC(C)C)[C@@H](C)O)CCNC(=O)[C@H]([C@@H](C)O)NC1=O | 0.995 µg/mL (≈ 0.799 µM) | – | 0.763 µg/mL (≈ 0.613 µM) | 9.5 µg/mL (≈ 7.63 µM) | – | –
CCNCC[C@@H]1NC(=O)[C@H](CCN)NC(=O)[C@H](CC(C)C)NC(=O)[C@@H](Cc2ccccc2)NC(=O)[C@H](CCN)NC(=O)[C@@H](NC(=O)[C@H](CCN)NC(=O)[C@@H](NC(=O)[C@H](CCN)NC(=O)CCCCC(C)C)[C@@H](C)O)CCNC(=O)[C@H]([C@@H](C)O)NC1=O | 0.492 µg/mL (≈ 0.404 µM) | – | 0.413 µg/mL (≈ 0.339 µM) | 9.5 µg/mL (≈ 7.8 µM) | – | –
CC(C)CCCCC(=O)N[C@@H](CCN)C(=O)N[C@H](C(=O)N[C@@H](CCN)C(=O)N[C@H]1CCNC(=O)[C@H]([C@@H](C)O)NC(=O)[C@H](CCNC(=O)C(Cl)Cl)NC(=O)[C@H](CCN)NC(=O)[C@H](CC(C)C)NC(=O)[C@@H](Cc2ccccc2)NC(=O)[C@H](CCN)NC1=O)[C@@H](C)O | 1.54 µg/mL (≈ 1.18 µM) | – | 0.995 µg/mL (≈ 0.765 µM) | 0.82 µg/mL (≈ 0.631 µM) | – | –
CCC(C)CCCCC(=O)NCC[C@@H]1NC(=O)[C@H](CCN)NC(=O)[C@H](CC(C)C)NC(=O)[C@@H](Cc2ccccc2)NC(=O)[C@H](CCN)NC(=O)[C@@H](NC(=O)[C@H](CCN)NC(=O)[C@@H](NC(=O)[C@H](CCN)NC(=O)CCCCC(C)C)[C@@H](C)O)CCNC(=O)[C@H]([C@@H](C)O)NC1=O (stereo partly specified) | 3.1 µg/mL (≈ 2.33 µM) | – | 2.18 µg/mL (≈ 1.64 µM) | 0.7 µg/mL (≈ 0.526 µM) | – | –
CC(C)CCCCC(=O)N[C@@H](CCN)C(=O)N[C@H](C(=O)N[C@@H](CCN)C(=O)N[C@H]1CCNC(=O)[C@H]([C@@H](C)O)NC(=O)[C@H](CCN)NC(=O)[C@H](CCN)NC(=O)[C@H](CC(C)C)NC(=O)[C@@H](Cc2ccccc2)NC(=O)[C@H](CCN)NC1=O)[C@@H](C)O ({Heptanoyl(6-Me)}-[Dab]T[Dab][Dab][Dab][dF]L[Dab][Dab]T; lactam 4-C) [listing 2 of 2 here] | – | – | – | – | 9 mg/kg | 4.5
CC(C)CCCCC(=O)N[C@@H](CCN)C(=O)N[C@H](C(=O)N[C@@H](CCN)C(=O)N[C@H]1CCNC(=O)[C@H]([C@@H](C)O)NC(=O)[C@H](CCNC(=O)CCl)NC(=O)[C@H](CCN)NC(=O)[C@H](CC(C)C)NC(=O)[C@@H](Cc2ccccc2)NC(=O)[C@H](CCN)NC1=O)[C@@H](C)O | 0.454 µg/mL (≈ 0.359 µM) | – | 0.085 µg/mL (≈ 0.0671 µM) | 9.5 µg/mL (≈ 7.5 µM) | – | –
CCN(CC)CC[C@H](NC(=O)CCCCC(C)C)C(=O)N[C@H](C(=O)N[C@@H](CCN)C(=O)N[C@H]1CCNC(=O)[C@H]([C@@H](C)O)NC(=O)[C@H](CCN)NC(=O)[C@H](CCN)NC(=O)[C@H](CC(C)C)NC(=O)[C@@H](Cc2ccccc2)NC(=O)[C@H](CCN)NC1=O)[C@@H](C)O | 0.208 µg/mL (≈ 0.167 µM) | – | 0.206 µg/mL (≈ 0.165 µM) | 2.4 µg/mL (≈ 1.93 µM) | – | –
